Source: patent US20240108557A1, “TOPICAL COMPOSITION USEFUL FOR THE DAILY CARE OF ACNE-PRONE SKIN” (Pierre Fabre Dermo-Cosmetique, priority 2021, published 2024)

Test system: Stratum corneum
Assay: AFM elastic modulus of Stratum corneum in skin explants (keratolytic effect)
Set-up: species or system human
Settings: three topical applications, succinic acid 0.6 wt %, lactic acid 0.36 wt %, alone or combined (ratio 1.67)
Experimental: Keratolytic effect was assessed by observing the skin biomechanical properties modulation (skin stiffness modulation) induced by the tested agents using Atomic Force Microscopy (AFM) in skin explants. • 1 explant by donor and treatment • 3 distinct areas were measured by explant • A minimum of 12 measures by aera
Skin punchs of 1.2 cm were made from breast skin of women between 35 and 43 years old. […] First and second application during 1 hour, and the third-one during 3 hours. […] Mechanical properties of skin explants cryosections have been assessed, at Stratum corneum and epidermis areas, by AFM measurements.
AFM indentation experiments were carried out with a Resolve Bioscope (Bruker Nano Surface, Santa Barbara, CA) that was mounted on an inverted optical DM18 (Leica) and a top view Bruker. All measurements of skin stiffness were performed using cantilevers with conical tips. The cantilever moved with the relief of the skin surface. This deformation was quantified by the deflection of the laser beam who are correlated with biomechanical parameters of skin surface samples. Quantitative measure of elastic modulus was used to assess Stratum corneum or epidermis cell-cell junctions stiffness after treatment.

Row | SMILES | inhibition of elastic modulus of Stratum corneum (stiffness reduction) compared to untreated control
1 | CC(O)C(=O)O (centres unmarked) [lactic acid] | did not show any significant effect
2 | O=C(O)CCC(=O)O [succinic acid] | did not show any significant effect
